Experimental data as given in patent US20140308733A1, “METHOD FOR INDUCING GERMINATION OF SPORE FORMING BACTERIUM” (CALPIS CO., LTD., priority 2011, published 2014).

Legend:
[1] = test system: Aeribacillus pallidus TK6004 (FERM BP-08597); test: Germination induction, change of turbidity (630 nm) of spore suspension; assay type: cell-based; conditions: 300 ppm; for turbidity (630 nm): 37° C., 150 rpm; for germination confirmed by turbidity decrease: up to 180 min
Procedure: (§1) It is possible to determine whether spores have germinated, after measuring an OD 630 value (turbidity at 630 nm) of the liquid culture, based on decrease in the value (Literature: Microbiology, (1950), 4, 3, 330-338). Briefly, bacterial cells after culturing are washed with distilled water and diluted with distilled water to OD 630=1.0, which is then mixed with an equal volume of a germination induction solution, and the turbidity at 630 nm is measured by a UV spectrophotometer at room temperature.
(§2) TS culture media (Difco, Trypticase Soy Broth) were inoculated respectively with 11 strains listed in Table 1 and cultured at 50° C. with respect to Geobacillus stearothermophilus NBRC13737 and Aeribacillus pallidus TK6004 (FERM BP-08597), and at 37° C. with respect to the other 9 strains, until respective colonies were established. Then with respect to each of 11 strains, a loop full of a single colony was scratched by a platinum loop and suspended in 500 μL of sterilized water. In 1000 g of water was dissolved 8.0 g of a nutrient agar culture medium (Difco, Nutrient Broth), followed by high pressure steam sterilization (121° C., 15 min) to prepare a plate medium. The nutrient agar culture medium was smeared with each 100 μL of the suspension and cultured at 37° C. for 3 days.
(§3) Then, bacterial cells were suspended using a platinum loop in 500 μL of sterilized water, and the bacterial suspension was subjected to a heat shock at 65° C. for 35 min. Each 100 μL of the heat-shocked bacterial suspension and a not-heat-shocked bacterial suspension were smeared on the TS culture media respectively and cultured at 50° C. or 37° C. for 1 day. As the results of the cultures, colony formation was confirmed also with respect to the heat-shocked bacterial suspensions, to confirm that spores were formed for all of 11 strains. Further, since the bacteria were not stained by Gram staining, it was reconfirmed that spores were formed.
(§4) After confirming the spore formation, the bacterial cells were collected by a bacteria spreader, suspended in 10 mL of sterilized distilled water, and then centrifuged (8340×g, 4° C., 15 min). The supernatant was removed and thereafter the bacterial cells were washed twice with 10 mL of sterilized water. After washing, the bacterial cells were suspended in 5 mL of sterilized water, and the suspension was filtrated by sterilized Kimwipes. The filtrate was centrifuged (8340×g, 4° C., 15 min) to remove the supernatant, and the rest was adjusted to the turbidity (at 630 nm) of 1.0 with sterilized water.
(§5) After dissolving with stirring using a stirring rod with a propeller, filtration sterilization (0.45 μm filter) was conducted to prepare each 600 ppm-solution.
(§6) Five hundred (500) μL of each solution and 500 μL of each bacterial spore suspension were mixed. […] Defining the time point of mixing as the reaction initiation (0 min), and continuing shaking (150 rpm) at 37° C., the turbidity (630 nm) was measured at 10, 20, 30, 40, 50, 60, 90, 120, and 180 min after the reaction initiation.
(§7) Since the turbidity at 630 nm decreases by germination of spores, it has been known that the turbidity at 630 nm can be used to determine the germination rate.

[2] = test system: Bacillus amyloliquefaciens (NBRC 3032); test: as above; assay type: cell-based; conditions: 300 ppm; for turbidity (630 nm): 37° C., 150 rpm; for germination confirmed by turbidity decrease: up to 180 min
Procedure: as §1, §2, §3, §4, §5, §6, §7

[3] = test system: C-3102 strain; test: Long time culture of spore suspension with inducer, turbidity up to 24 hours (proliferation check, Example 4); assay type: cell-based, Bacillus subtilis; conditions: 500 μL spore suspension + 500 μL of 600 ppm solution
Procedure: This Example is an experiment to examine whether proliferation is recognizable or not, when ferulic acid or vanillic acid is mixed with a spore suspension of the C-3102 strain and cultured for a long time period.
The C-3102 strain was cultured on a nutrient plate at 37° C. for 3 days, and thereafter bacterial cells were collected by a bacteria spreader and a spore suspension was prepared similarly as in Example 1 (OD 630=1.0). After mixing 500 μL of the C-3102 spore suspension with 500 μL of a 600 ppm-ferulic acid solution, or a 600 ppm-vanillic acid solution, change in the turbidity (630 nm) up to 24 hours was examined.

[4] = 0 min after reaction initiation
[5] = 10 min after reaction initiation
[6] = 20 min after reaction initiation
[7] = 30 min after reaction initiation
[8] = 40 min after reaction initiation
[9] = 50 min after reaction initiation
[10] = 60 min after reaction initiation
[11] = 90 min after reaction initiation
[12] = 120 min after reaction initiation
[13] = 180 min after reaction initiation

SMILES | turbidity (630 nm) [1, 4] | turbidity (630 nm) [1, 5] | turbidity (630 nm) [1, 6] | turbidity (630 nm) [1, 7] | turbidity (630 nm) [1, 8] | turbidity (630 nm) [1, 9] | turbidity (630 nm) [1, 10] | turbidity (630 nm) [1, 11] | turbidity (630 nm) [1, 12] | turbidity (630 nm) [1, 13] | germination confirmed by turbidity decrease [1] | turbidity (630 nm) [2, 4] | turbidity (630 nm) [2, 5] | turbidity (630 nm) [2, 6] | turbidity (630 nm) [2, 7] | turbidity (630 nm) [2, 8] | turbidity (630 nm) [2, 9] | turbidity (630 nm) [2, 10] | turbidity (630 nm) [2, 11] | turbidity (630 nm) [2, 12] | further results
COc1cc(/C=C/C(=O)O)ccc1O [Ferulic acid, ferulic acid] | 0.484 | 0.450 | 0.393 | 0.276 | 0.193 | 0.124 | 0.080 | 0.040 | 0.016 | 0.016 | the turbidity decreased | 0.526 | 0.505 | 0.480 | 0.431 | 0.397 | 0.353 | 0.316 | 0.269 | 0.245 | turbidity (630 nm) [2, 13]: 0.216; germination confirmed by turbidity decrease [2]: the turbidity decreased; turbidity (630 nm) ([3]; reaction time 0 hr): 0.574; turbidity (630 nm) ([3]; reaction time 0.5 hr): 0.543; turbidity (630 nm) ([3]; reaction time 1 hr): 0.502; turbidity (630 nm) ([3]; reaction time 1.5 hr): 0.464; turbidity (630 nm) ([3]; reaction time 2 hr): 0.425; turbidity (630 nm) ([3]; reaction time 3 hr): 0.370; turbidity (630 nm) ([3]; reaction time 24 hr): 0.178
COc1cc(C(=O)O)ccc1O [Vanillic acid, vanillic acid] | 0.482 | 0.444 | 0.348 | 0.243 | 0.158 | 0.103 | 0.067 | 0.026 | 0.010 | 0.000 | the turbidity decreased | 0.519 | 0.496 | 0.485 | 0.435 | 0.385 | 0.359 | 0.316 | 0.278 | 0.237 | turbidity (630 nm) [2, 13]: 0.210; germination confirmed by turbidity decrease [2]: the turbidity decreased; turbidity (630 nm) ([3]; reaction time 0 hr): 0.575; turbidity (630 nm) ([3]; reaction time 0.5 hr): 0.540; turbidity (630 nm) ([3]; reaction time 1 hr): 0.481; turbidity (630 nm) ([3]; reaction time 1.5 hr): 0.426; turbidity (630 nm) ([3]; reaction time 2 hr): 0.380; turbidity (630 nm) ([3]; reaction time 3 hr): 0.316; turbidity (630 nm) ([3]; reaction time 24 hr): 0.060
